In patent publication US20240025884A1 (Dong-A ST Co., Ltd., priority 2022, published 2024):

target: GCN2 (Homo sapiens (Human), UniProt Q9P2K8); assay: GCN2 Biochemical Assay (TR-FRET, GFP-eIF2S1 substrate phosphorylation); conditions: read-out: IC50 (GCN2 Inhibitory Activity)
Outline: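 In-house GCN2 (1.6 nM 2× stock) phosphorylates GFP-eIF2S1 (50 nM 2× stock) with ATP (0.2 mM 2× stock) and tRNA, pH 7.5, 70 min at room temperature; 10-point 3.16-fold compound series. TR-FRET detection with Tb-anti-phospho antibody, 2–3 h, Ex 340/Em 490/520 nm; artifact plate spiked with phospho-substrate.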

GCN2, sequence (Q9P2K8 whole entry): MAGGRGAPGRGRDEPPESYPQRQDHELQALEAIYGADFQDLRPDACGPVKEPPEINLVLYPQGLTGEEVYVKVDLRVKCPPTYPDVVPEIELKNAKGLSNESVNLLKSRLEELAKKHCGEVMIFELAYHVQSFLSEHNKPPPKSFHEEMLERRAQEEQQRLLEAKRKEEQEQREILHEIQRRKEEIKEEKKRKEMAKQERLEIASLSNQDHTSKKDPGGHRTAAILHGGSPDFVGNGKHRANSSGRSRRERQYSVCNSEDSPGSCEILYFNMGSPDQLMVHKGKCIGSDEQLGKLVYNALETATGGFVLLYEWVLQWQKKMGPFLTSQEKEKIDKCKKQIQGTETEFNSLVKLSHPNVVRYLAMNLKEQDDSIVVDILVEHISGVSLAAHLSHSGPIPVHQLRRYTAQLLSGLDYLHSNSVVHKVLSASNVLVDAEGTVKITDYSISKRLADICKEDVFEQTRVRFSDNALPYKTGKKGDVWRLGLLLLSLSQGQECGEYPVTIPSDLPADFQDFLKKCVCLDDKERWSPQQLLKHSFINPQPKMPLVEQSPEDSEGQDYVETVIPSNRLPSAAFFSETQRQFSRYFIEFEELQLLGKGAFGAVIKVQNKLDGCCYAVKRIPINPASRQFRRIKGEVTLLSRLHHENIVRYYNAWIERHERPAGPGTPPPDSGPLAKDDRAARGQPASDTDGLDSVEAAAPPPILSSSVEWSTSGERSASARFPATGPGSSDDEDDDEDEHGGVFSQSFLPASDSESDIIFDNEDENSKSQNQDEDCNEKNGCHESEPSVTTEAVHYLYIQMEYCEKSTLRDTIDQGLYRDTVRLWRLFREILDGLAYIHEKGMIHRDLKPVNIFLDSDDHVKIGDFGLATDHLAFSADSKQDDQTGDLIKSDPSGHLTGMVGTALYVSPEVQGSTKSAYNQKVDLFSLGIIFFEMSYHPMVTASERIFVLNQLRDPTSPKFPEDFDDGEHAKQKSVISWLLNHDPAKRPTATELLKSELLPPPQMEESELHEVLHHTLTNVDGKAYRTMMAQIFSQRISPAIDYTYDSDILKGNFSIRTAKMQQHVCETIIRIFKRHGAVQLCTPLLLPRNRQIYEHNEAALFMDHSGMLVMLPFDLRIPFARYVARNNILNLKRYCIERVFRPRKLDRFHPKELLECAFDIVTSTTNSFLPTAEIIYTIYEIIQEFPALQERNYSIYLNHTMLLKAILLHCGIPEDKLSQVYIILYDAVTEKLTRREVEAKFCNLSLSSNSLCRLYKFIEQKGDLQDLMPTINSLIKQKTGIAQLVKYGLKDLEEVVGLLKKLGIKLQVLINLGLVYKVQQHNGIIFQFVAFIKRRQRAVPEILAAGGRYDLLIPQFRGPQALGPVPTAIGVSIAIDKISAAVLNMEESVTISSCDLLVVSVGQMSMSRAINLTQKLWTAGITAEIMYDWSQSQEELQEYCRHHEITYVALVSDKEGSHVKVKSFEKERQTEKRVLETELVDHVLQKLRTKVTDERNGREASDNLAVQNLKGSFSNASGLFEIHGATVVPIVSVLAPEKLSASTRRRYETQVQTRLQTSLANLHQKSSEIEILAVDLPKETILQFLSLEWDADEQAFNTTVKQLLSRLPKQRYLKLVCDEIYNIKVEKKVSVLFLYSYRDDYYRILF

`Cc1cnc(Nc2cc(C)n(C)n2)nc1-c1c[nH]c2c(NC(=O)CN3CC[C@H](Oc4ncc(F)c(N5CCOCC5)n4)C3)cccc12` [Example 188, (S)-N-(3-(2-((1,5-dimethyl-1H-pyrazol-3-yl)amino)-5-methylpyrimidin-4-yl)-1H-indol-7-yl)-2-(3-((5-fluoro-4-morpholinopyrimidin-2-yl)oxy)pyrrolidin-1-yl)acetamide] and `Cc1cnc(Nc2cc(C)n(C)n2)nc1-c1c[nH]c2c(NC(=O)CN3CC[C@H](Oc4ncc(F)c(N5CCSCC5)n4)C3)cccc12` [Example 189, (S)-N-(3-(2-((1,5-dimethyl-1H-pyrazol-3-yl)amino)-5-methylpyrimidin-4-yl)-1H-indol-7-yl)-2-(3-((5-fluoro-4-thiomorpholinopyrimidin-2-yl)oxy)pyrrolidin-1-yl)acetamide] cannot be ordered by IC50: under 10 nM for the first, under 10 nM for the second.

`Cc1cnc(Nc2cc(C)n(C)n2)nc1-c1c[nH]c2c(NC(=O)CN3CC[C@H](Oc4ncc(F)c(N5CCN(C)CC5)n4)C3)cccc12` [Example 190, (S)-N-(3-(2-((1,5-dimethyl-1H-pyrazol-3-yl)amino)-5-methylpyrimidin-4-yl)-1H-indol-7-yl)-2-(3-((5-fluoro-4-(4-methylpiperazin-1-yl)pyrimidin-2-yl)oxy)pyrrolidin-1-yl)acetamide] and `Cc1cnc(O[C@H]2CCN(CC(=O)Nc3cccc4c(-c5nc(Nc6cc(C)n(C)n6)ncc5C)c[nH]c34)C2)nc1NC1CC1` [Example 191, (S)-2-(3-((4-(cyclopropylamino)-5-methylpyrimidin-2-yl)oxy)pyrrolidin-1-yl)-N-(3-(2-((1,5-dimethyl-1H-pyrazol-3-yl)amino)-5-methylpyrimidin-4-yl)-1H-indol-7-yl)acetamide] cannot be ordered by IC50: under 10 nM for the first, under 10 nM for the second.

`Cc1cnc(Nc2cc(C)n(C)n2)nc1-c1c[nH]c2c(NC(=O)CN3CC[C@H](Oc4ccnc(N)n4)C3)cccc12` [Example 192, (S)-2-(3-((2-aminopyrimidin-4-yl)oxy)pyrrolidin-1-yl)-N-(3-(2-((1,5-dimethyl-1H-pyrazol-3-yl)amino)-5-methylpyrimidin-4-yl)-1H-indol-7-yl)acetamide] and `CSc1nccc(O[C@H]2CCN(CC(=O)Nc3cccc4c(-c5nc(Nc6cc(C)n(C)n6)ncc5C)c[nH]c34)C2)n1` [Example 193, (S)-N-(3-(2-((1,5-dimethyl-1H-pyrazol-3-yl)amino)-5-methylpyrimidin-4-yl)-1H-indol-7-yl)-2-(3-((2-(methylthio)pyrimidin-4-yl)oxy)pyrrolidin-1-yl)acetamide] cannot be ordered by IC50: under 10 nM for the first, under 10 nM for the second.

`COc1nccc(O[C@H]2CCN(CC(=O)Nc3cccc4c(-c5nc(Nc6cc(C)n(C)n6)ncc5C)c[nH]c34)C2)n1` [Example 194, (S)-N-(3-(2-((1,5-dimethyl-1H-pyrazol-3-yl)amino)-5-methylpyrimidin-4-yl)-1H-indol-7-yl)-2-(3-((2-methoxypyrimidin-4-yl)oxy)pyrrolidin-1-yl)acetamide] and `CNc1nccc(O[C@H]2CCN(CC(=O)Nc3cccc4c(-c5nc(Nc6cc(C)n(C)n6)ncc5C)c[nH]c34)C2)n1` [Example 197, (S)-N-(3-(2-((1,5-dimethyl-1H-pyrazol-3-yl)amino)-5-methylpyrimidin-4-yl)-1H-indol-7-yl)-2-(3-((2-(methylamino)pyrimidin-4-yl)oxy)pyrrolidin-1-yl)acetamide] cannot be ordered by IC50: under 10 nM for the first, under 10 nM for the second.

Compared with `Cc1cnc(Nc2cc(C)n(C)n2)nc1-c1c[nH]c2c(NC(=O)CN3CC[C@H](Oc4ccnc(OCc5ccccc5)n4)C3)cccc12` [Example 195, (S)-2-(3-((2-(benzyloxy)pyrimidin-4-yl)oxy)pyrrolidin-1-yl)-N-(3-(2-((1,5-dimethyl-1H-pyrazol-3-yl)amino)-5-methylpyrimidin-4-yl)-1H-indol-7-yl)acetamide], `CCNc1nccc(O[C@H]2CCN(CC(=O)Nc3cccc4c(-c5nc(Nc6cc(C)n(C)n6)ncc5C)c[nH]c34)C2)n1` [Example 203, (S)-N-(3-(2-((1,5-dimethyl-1H-pyrazol-3-yl)amino)-5-methylpyrimidin-4-yl)-1H-indol-7-yl)-2-(3-((2-(ethylamino)pyrimidin-4-yl)oxy)pyrrolidin-1-yl)acetamide] is lower in IC50: 10 to 100 nM for the first, under 10 nM for the second. The second is the more potent here.

`CC(=O)Nc1nccc(O[C@H]2CCN(CC(=O)Nc3cccc4c(-c5nc(Nc6cc(C)n(C)n6)ncc5C)c[nH]c34)C2)n1` [Example 196, (S)-2-(3-((2-acetamidopyrimidin-4-yl)oxy)pyrrolidin-1-yl)-N-(3-(2-((1,5-dimethyl-1H-pyrazol-3-yl)amino)-5-methylpyrimidin-4-yl)-1H-indol-7-yl)acetamide] and `Cc1cnc(Nc2cc(C)n(C)n2)nc1-c1c[nH]c2c(NC(=O)CN3CC[C@H](Oc4ccnc(NC(C)C)n4)C3)cccc12` [Example 211, (S)-N-(3-(2-((1,5-dimethyl-1H-pyrazol-3-yl)amino)-5-methylpyrimidin-4-yl)-1H-indol-7-yl)-2-(3-((2-(isopropylamino)pyrimidin-4-yl)oxy)pyrrolidin-1-yl)acetamide] cannot be ordered by IC50: under 10 nM for the first, under 10 nM for the second.

`Cc1cnc(Nc2cc(C)n(C)n2)nc1-c1c[nH]c2c(NC(=O)CN3CC[C@H](Oc4ccnc(NCC(F)(F)F)n4)C3)cccc12` [Example 198, (S)-N-(3-(2-((1,5-dimethyl-1H-pyrazol-3-yl)amino)-5-methylpyrimidin-4-yl)-1H-indol-7-yl)-2-(3-((2-((2,2,2-trifluoroethyl)amino)pyrimidin-4-yl)oxy)pyrrolidin-1-yl)acetamide] and `Cc1cnc(Nc2cc(C)n(C)n2)nc1-c1c[nH]c2c(NC(=O)CN3CC[C@H](Oc4ccnc(NCC(C)(F)F)n4)C3)cccc12` [Example 199, (S)-2-(3-((2-((2,2-difluoropropyl)amino)pyrimidin-4-yl)oxy)pyrrolidin-1-yl)-N-(3-(2-((1,5-dimethyl-1H-pyrazol-3-yl)amino)-5-methylpyrimidin-4-yl)-1H-indol-7-yl)acetamide] cannot be ordered by IC50: under 10 nM for the first, under 10 nM for the second.

`Cc1cnc(Nc2cc(C)n(C)n2)nc1-c1c[nH]c2c(NC(=O)CN3CC[C@H](Oc4ccnc(NCC(F)F)n4)C3)cccc12` [Example 200, (S)-2-(3-((2-((2,2-difluoroethyl)amino)pyrimidin-4-yl)oxy)pyrrolidin-1-yl)-N-(3-(2-((1,5-dimethyl-1H-pyrazol-3-yl)amino)-5-methylpyrimidin-4-yl)-1H-indol-7-yl)acetamide] and `Cc1cnc(Nc2cc(C)n(C)n2)nc1-c1c[nH]c2c(NC(=O)CN3CC[C@H](Oc4ccnc(NCCF)n4)C3)cccc12` [Example 202, (S)-N-(3-(2-((1,5-dimethyl-1H-pyrazol-3-yl)amino)-5-methylpyrimidin-4-yl)-1H-indol-7-yl)-2-(3-((2-((2-fluoroethyl)amino)pyrimidin-4-yl)oxy)pyrrolidin-1-yl)acetamide] cannot be ordered by IC50: under 10 nM for the first, under 10 nM for the second.

Compared with `Cc1cnc(Nc2cc(C)n(C)n2)nc1-c1c[nH]c2c(NC(=O)CN3CC[C@H](Oc4ccnc(NC(C)C(F)(F)F)n4)C3)cccc12` (stereo partly drawn) [Example 201, N-(3-(2-((1,5-dimethyl-1H-pyrazol-3-yl)amino)-5-methylpyrimidin-4-yl)-1H-indol-7-yl)-2-((3S)-3-((2-((1,1,1-trifluoropropan-2-yl)amino)pyrimidin-4-yl)oxy)pyrrolidin-1-yl)acetamide], `CCCNc1nccc(O[C@H]2CCN(CC(=O)Nc3cccc4c(-c5nc(Nc6cc(C)n(C)n6)ncc5C)c[nH]c34)C2)n1` [Example 204, (S)-N-(3-(2-((1,5-dimethyl-1H-pyrazol-3-yl)amino)-5-methylpyrimidin-4-yl)-1H-indol-7-yl)-2-(3-((2-(propylamino)pyrimidin-4-yl)oxy)pyrrolidin-1-yl)acetamide] is lower in IC50: 10 to 100 nM for the first, under 10 nM for the second. The second is the more potent here.

`CCCCNc1nccc(O[C@H]2CCN(CC(=O)Nc3cccc4c(-c5nc(Nc6cc(C)n(C)n6)ncc5C)c[nH]c34)C2)n1` [Example 205, (S)-2-(3-((2-(butylamino)pyrimidin-4-yl)oxy)pyrrolidin-1-yl)-N-(3-(2-((1,5-dimethyl-1H-pyrazol-3-yl)amino)-5-methylpyrimidin-4-yl)-1H-indol-7-yl)acetamide] and `Cc1cnc(Nc2cc(C)n(C)n2)nc1-c1c[nH]c2c(NC(=O)CN3CC[C@H](Oc4ccnc(NCCCO)n4)C3)cccc12` [Example 206, (S)-N-(3-(2-((1,5-dimethyl-1H-pyrazol-3-yl)amino)-5-methylpyrimidin-4-yl)-1H-indol-7-yl)-2-(3-((2-((3-hydroxypropyl)amino)pyrimidin-4-yl)oxy)pyrrolidin-1-yl)acetamide] cannot be ordered by IC50: under 10 nM for the first, under 10 nM for the second.

`Cc1cnc(Nc2cc(C)n(C)n2)nc1-c1c[nH]c2c(NC(=O)CN3CC[C@H](Oc4ccnc(NC5CC5)n4)C3)cccc12` [Example 207, (S)-2-(3-((2-(cyclopropylamino)pyrimidin-4-yl)oxy)pyrrolidin-1-yl)-N-(3-(2-((1,5-dimethyl-1H-pyrazol-3-yl)amino)-5-methylpyrimidin-4-yl)-1H-indol-7-yl)acetamide] and `Cc1cnc(Nc2cc(C)n(C)n2)nc1-c1c[nH]c2c(NC(=O)CN3CC[C@H](Oc4ccnc(NC5CCC5)n4)C3)cccc12` [Example 208, (S)-2-(3-((2-(cyclobutylamino)pyrimidin-4-yl)oxy)pyrrolidin-1-yl)-N-(3-(2-((1,5-dimethyl-1H-pyrazol-3-yl)amino)-5-methylpyrimidin-4-yl)-1H-indol-7-yl)acetamide] cannot be ordered by IC50: under 10 nM for the first, under 10 nM for the second.

`Cc1cnc(Nc2cc(C)n(C)n2)nc1-c1c[nH]c2c(NC(=O)CN3CC[C@H](Oc4ccnc(NC5CCCC5)n4)C3)cccc12` [Example 209, (S)-2-(3-((2-(cyclopentylamino)pyrimidin-4-yl)oxy)pyrrolidin-1-yl)-N-(3-(2-((1,5-dimethyl-1H-pyrazol-3-yl)amino)-5-methylpyrimidin-4-yl)-1H-indol-7-yl)acetamide] and `Cc1cnc(Nc2cc(C)n(C)n2)nc1-c1c[nH]c2c(NC(=O)CN3CC[C@H](Oc4ccnc(NC5CCCCC5)n4)C3)cccc12` [Example 210, (S)-2-(3-((2-(cyclohexylamino)pyrimidin-4-yl)oxy)pyrrolidin-1-yl)-N-(3-(2-((1,5-dimethyl-1H-pyrazol-3-yl)amino)-5-methylpyrimidin-4-yl)-1H-indol-7-yl)acetamide] fall in the same range of IC50: 10 to 100 nM for the first, 10 to 100 nM for the second.
